Results taken from patent US9556217B2, “Amphiphilic compounds” (WISCONSIN ALUMNI RESEARCH FOUNDATION, priority 2012, dated 2017).
Read-outs that look alike come from different tables or passages of the source.

Legend:
[1] = Critical micelle concentration (fluorescent dye solubilization); type: physicochemical
Text: The “Critical Micelle Concentration” (CMC) refers to the concentration of a detergent (e.g., an amphiphile as described herein) in an aqueous solution at which the detergent molecules self-assemble into micelles. Below the CMC, detergents are mostly monomeric; above the CMC, micelle concentration increases linearly with detergent concentration. The CMC is dependent upon many factors and is detergent-specific. The CMC of a detergent can be determined experimentally by measuring the solubilization of a water-insoluble dye or fluorophore while varying the concentration of detergent. A CMC may also be determined by measuring the diminution of the surface tension of an aqueous solution as a function of detergent concentration (CMCs determined by either method correlate with each other). The CMC is determined by extrapolating the plot of solubilization vs. concentration (or surface tension vs. concentration) in the two linear regions above and below the CMC. Where the two lines intersect is the CMC. The CMC can also be determined by the method of Nugebauer, J. M. (1990), Methods in Enzymology, 182:239-253.
The four compounds were readily prepared on a multi-gram scale (see Examples 1 and 2 below, and FIGS. 13-15), as is necessary if they are to serve as research tools. All four are highly soluble in aqueous solution (>20 wt %) and have relatively low critical micelle concentrations (CMC; determined by fluorescent dye solubilization).

[2] = Hydrodynamic radius of micelles by dynamic light scattering; type: physicochemical; conditions: Mean ± SD, n = 5
Text: These values are somewhat smaller than the CMC of DDM, which indicates a strong tendency of the new agents to self-assemble, and which can be advantageous for IMP handling because detrimental levels of non-micellar amphiphile can be avoided. Table 1 provides the hydrodynamic radius (Rh) of the micelles formed by each amphiphile, as determined by dynamic light scattering (DLS). The micelles formed by GLC amphiphiles are slightly smaller than those formed by DDM, while the micelles formed by GDN are slightly larger.

wild type β2AR (β2AR WT) = biological target: T1, wild type β2AR (β2AR WT) (Homo sapiens, UniProt P07550); test: β2AR WT activity after extraction ([3H]-dihydroalprenolol binding); type: biochemical
T1 construct: made in house; host or cells: Sf9 insect cells (baculovirus); lysed cells and membranes extracted directly with amphiphile
T1 sequence (P07550 whole entry): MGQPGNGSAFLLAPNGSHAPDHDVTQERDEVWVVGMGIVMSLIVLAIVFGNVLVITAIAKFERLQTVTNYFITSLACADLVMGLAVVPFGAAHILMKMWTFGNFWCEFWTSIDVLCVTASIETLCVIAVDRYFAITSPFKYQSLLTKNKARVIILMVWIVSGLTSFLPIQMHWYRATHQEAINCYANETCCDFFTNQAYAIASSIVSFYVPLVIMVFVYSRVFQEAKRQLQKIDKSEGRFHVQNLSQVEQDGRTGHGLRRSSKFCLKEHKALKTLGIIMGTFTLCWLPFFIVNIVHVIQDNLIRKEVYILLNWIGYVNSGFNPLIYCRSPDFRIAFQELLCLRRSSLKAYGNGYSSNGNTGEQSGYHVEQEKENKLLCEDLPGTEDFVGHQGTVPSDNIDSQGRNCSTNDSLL
Protocol: In the examples discussed above, conventional detergents such as DDM were used to extract IMPs from the membrane, and then in most cases the solution of detergent-solubilized protein was diluted with amphiphile-containing solutions to evaluate the new agents. With this approach it is possible that the small amount of residual conventional detergent could affect protein stability. To exclude this possibility, GLC-3 and GDN were used to extract wild type β2AR (β2AR WT) (Kobilka, Trends in Pharmacological Sciences 2011, 32, 213-218) from the membrane. Receptor activity was measured via a binding assay involving the antagonist [^3H]-dihydroalprenolol. […] GDN is therefore highly suitable for GPCR extraction.
(§1) A gene encoding amino-terminally FLAG epitope tagged β2AR was expressed in Sf9 cells by baculovirus, with no ligand present during culture. Cells were infected at a density of 4×10^6 cells/mL and then cultured for 48 hours prior to harvesting by centrifugation. Cells were resuspended and lysed by osmotic shock with a low ionic strength buffer (20 mM Tris pH 7.5, 1 mM EDTA). The lysed cells were aliquoted 35 mg per aliquot, then frozen. For extraction tests, 300 μL of solubilization buffer (20 mM HEPES pH 7.5, 100 mM NaCl) containing each amphiphile was added to each aliquot, which was then homogenized by pipet followed by grinding with a glass dounce tissue homogenizer. After two-hour incubation at 4° C., samples were centrifuged at maximum speed in a tabletop microcentrifuge to pellet insoluble material. Supernatant was removed and assayed for protein concentration by DC protein assay (Bio-Rad).
The amount of functional receptor was quantified by incubation for 1 hour with 10 nM 3H dihydroalprenolol. Samples were then separated by gel filtration over G-50 resin and radioactivity was quantified by liquid scintillation. Nonspecific binding was measured in the presence of 10 μM alprenolol. Assays were performed in triplicate at time points indicated. G-50 filtration was performed in buffer containing 20 mM HEPES pH 7.5, 100 mM NaCl, 10-fold CMC of the detergent tested. All binding assays were performed with ice cold buffers.

[3] = tested on: δ-opioid receptor-T4L fusion (δOR-T4L); test: δOR-T4L activity after solubilization ([3H]-diprenorphine binding); type: biochemical; conditions: extracted with 1.0 wt % of amphiphile
Text: We turned to a δ-opioid receptor-T4L fusion (δOR-T4L), another GPCR, to compare GDN with the recently reported amphiphile MNG-3 (P. S. Chae, et al., Nat. Methods 2010, 7, 1003-1008), which has proven to be essential for crystallization of several other GPCR constructs (Rasmussen, et al., Nature 2011, 469, 236-240; Rosenbaum, et al., Nature 2011, 469, 175-180; Rasmussen, et al., Nature 2011, 477, 540-541; Kruse, et al., Nature 2012, 482, 552-556; Haga, et al., Nature 2012, 482, 547-551). […] The ability of the new amphiphiles to stabilize membrane proteins thus allows for the ability to perform analyses and structural studies that could not be performed with other detergents such as DDM because harsher detergents (e.g., DDM) can remove important lipid moieties from the proteins, causing them to denature and rapidly loose activity.
FLAG epitope tagged δOR-T4L was expressed in Sf9 insect cells using baculovirus particles generated by the pFastBac vector system (Invitrogen). Insect cells were infected and cultured as for the β2AR and cells were lysed by osmotic shock as done for cells expressing β2AR. Lysed cells were used for extraction tests by adding 40 mg of cells to 200 μL of solubilization buffer (20 mM HEPES pH 7.5, 100 mM NaCl) containing each amphiphile. […] The amount of functional receptor after solubilization was quantified by incubation for 1 hour with 10 nM 3H diprenorphine. […]

[4] = biological target: T2, CMP-Sia fusion protein bearing green fluorescent protein (GFP) (Mus musculus, UniProt Q61420); test: CMP-Sia-GFP fusion solubilization (fluorescence); conditions: 1 wt %, 1 hr at 4° C., total fluorescence
T2 construct: made in house; host or cells: Saccharomyces cerevisiae FGY217
Protocol: (§2) The favorable MelB extraction performance of GDN led to the examination of this amphiphile for extraction of other IMPs. […] DDM and GDN were used to extract a CMP-Sia fusion protein bearing green fluorescent protein (GFP) at the C-terminus, after expression in Saccharomyces cerevisiae; the amount of solubilized protein was estimated by total fluorescence. GDN (2 wt %), DDM (1 wt %) and OG (1 wt %) gave ˜70%, ˜80% and ˜50% extraction yields, respectively.
(§3) The procedure was performed according to the protocol reported by Chae and coworkers (Nat. Methods 2010, 7, 1003-1008).
CMP-Sia was expressed as a fusion protein with a C-terminal GFP in FGY217 Saccharomyces cerevisiae cells. Cell lysis was conducted by using a cell disrupter (Constant Systems) and the protein samples were subjected to centrifugation at 15,000 g for 10 mins to remove unbroken cells and debris. Subsequently, the membranes were harvested by ultracentrifugation at 150,000 g for 45 min. The membranes were resuspended in 50 mM Tris-HCl (pH 7.6), 1 mM EDTA, 0.6 M sorbitol and the protein concentration was estimated using a BCA kit (Pierce). The membranes were incubated with OG or DDM at 1.0%, or GDN at 2.0% for 1 hr at 4° C. A fluorescence value was measured for each sample before and after ultracentrifugation at 150,000 g for 1 h. The solubilization efficiency was calculated via the fluorescence measurements of the soluble supernatant/the total sample.

β2AR WT = biological target: T3, β2AR WT (Homo sapiens, UniProt P07550); test: Extraction of β2AR WT from insect cell membranes; conditions: 1 wt %; western blotting
T3 construct: made in house; host or cells: Sf9 insect cells (baculovirus); lysed cells and membranes extracted directly with amphiphile
T3 sequence (P07550 whole entry): as above
Protocol: as §2, §3
as §1, with “Supernatant was removed and assayed for protein concentration by DC protein assay (Bio-Rad).” left out

[5] = stated in the bR protocol; cited from earlier work

Row | SMILES | CMC [1] [µM] | CMC (wt %) [1] [wt %] | Rh (nm), hydrodynamic radius of micelles [2] [nm] | also measured
1 | CO[C@@H]1CC[C@@]2(C)[C@H](CC[C@@H]3[C@@H]2CC[C@]2(C)[C@@H]([C@H](C)CCC(=O)NC(CO[C@@H]4OC(CO)C(O[C@@H]5OC(CO)[C@@H](O)[C@H](O)C5O)[C@@H](O)C4O)CO[C@@H]4OC(CO)[C@@H](O[C@H]5OC(CO)[C@@H](O)[C@H](O)C5O)[C@H](O)C4O)CC[C@@H]32)C1 (stereo partly drawn) [GLC-1] | ~52 | ~0.006 | 3.22 ± 0.03 | –
2 | CO[C@@H]1CC[C@@]2(C)[C@H](CC[C@@H]3[C@@H]2CC[C@]2(C)C(C(C)CCCC(CO[C@@H]4OC(CO)C(O[C@@H]5OC(CO)[C@@H](O)[C@H](O)C5O)[C@@H](O)C4O)CO[C@@H]4OC(CO)[C@@H](O[C@H]5OC(CO)[C@@H](O)[C@H](O)C5O)[C@H](O)C4O)CC[C@@H]32)C1 (stereo partly drawn) [GLC-3] | ~7.1 | ~0.00077 | 3.27 ± 0.08 | β2AR WT initial activity (wild type β2AR (β2AR WT); extracted with 1 wt % or 2 wt % amphiphile, [3H]-dihydroalprenolol binding): initial activity similar to that of DDM; β2AR WT activity over 72 hours (wild type β2AR (β2AR WT); solubilized samples stored at 4° C.): activity was maintained over 72 hours
3 | CCCCCCCCCCC(CCCCCCCCCC)(CO[C@@H]1O[C@H](CO)[C@@H](O[C@H]2O[C@H](CO)[C@@H](O)[C@H](O)[C@H]2O)[C@H](O)[C@H]1O)CO[C@@H]1O[C@H](CO)[C@@H](O[C@H]2O[C@H](CO)[C@@H](O)[C@H](O)[C@H]2O)[C@H](O)[C@H]1O [MNG-3, reference compound] | – | – | – | δOR-T4L ligand binding activity after solubilization [3]: higher activity than DDM-solubilized δOR-T4L
4 | CCCCCCCCO[C@@H]1O[C@H](CO)[C@@H](O)[C@H](O)[C@H]1O [OG, octyl-β-D-glucoside, reference compound] | – | – | – | CMP-Sia-GFP extraction yield [4]: ~50%; β2AR WT detected after extraction (β2AR WT): only a very small amount of β2AR WT was detected
5 | CCCCCCCCS[C@@H]1O[C@H](CO)[C@@H](O)[C@H](O)[C@H]1O [OTG, octyl-β-D-thioglucoside] | – | – | – | CMC [5]: 0.28 wt %
